Here are results for one substance from patent US7491501B2, “Methods for identifying modulators of intracellular aggregate formation” (Auburn University, priority 2003, dated 2009).

Assay type in all cases: cell-based
Experiment [1] has as its target T1, p62-TRAF6 interaction (Homo sapiens, UniProt Q9Y4K3).
T1 construct: endogenous in cells; host or cells: HEK 293
T1 sequence (Q9Y4K3 1-522): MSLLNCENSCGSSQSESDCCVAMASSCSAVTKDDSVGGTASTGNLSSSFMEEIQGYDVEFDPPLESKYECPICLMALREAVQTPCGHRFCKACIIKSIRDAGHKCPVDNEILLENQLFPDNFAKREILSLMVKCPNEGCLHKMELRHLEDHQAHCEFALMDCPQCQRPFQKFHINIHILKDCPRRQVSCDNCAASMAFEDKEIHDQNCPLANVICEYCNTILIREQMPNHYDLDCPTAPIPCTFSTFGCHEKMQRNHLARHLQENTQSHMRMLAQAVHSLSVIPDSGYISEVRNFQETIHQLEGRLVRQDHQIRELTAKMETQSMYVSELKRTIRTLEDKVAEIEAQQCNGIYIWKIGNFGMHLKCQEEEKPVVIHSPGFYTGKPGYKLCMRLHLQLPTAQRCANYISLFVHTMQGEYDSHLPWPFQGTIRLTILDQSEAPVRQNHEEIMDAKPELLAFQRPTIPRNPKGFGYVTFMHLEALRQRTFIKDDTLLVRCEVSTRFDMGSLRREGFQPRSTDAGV
Put plainly: p62-TRAF6 interaction in HEK cells after IL-1 stimulation, p62 UBA domain pull-down (FIG. 2C). Particulars: increasing doses of peptide. Here is the method: GST Pull-Down Assay—Glutathione beads coupled with p62 UBA domain were washed three times with binding buffer (20 mM Tris-HCl, pH 7.6, 50 mM NaCl, 0.1% Nonidet P-40, […], 1 mM phenylmethylsulfonyl fluoride) containing 25 μg/ml of BSA. For each mg of lysate, 2.5 μg of GST-UBA domain was added and rotated for 2 h at room temperature. The beads were washed 3 times with binding buffer and boiled in SDS-PAGE sample buffer, followed by separation employing a 7.5% SDS-gel, and western blotting with appropriate antibody.
A peptide (plain type, SEQ ID NO. 6) containing the TRAF6-binding motif present in p62 (underlined type) along with the hydrophobic sequence containing the cell-permeable motif (italicized type) from Kaposi fibroblast growth factor signal sequence was synthesized ([…]-[…]) (SEQ ID NO. 4) or a control peptide with mutant amino acids in the interaction motif (AAVA […]-[…])(SEQ ID NO. 5). […] HEK cells were treated or not with increasing doses of control or TRAF6 inhibitory peptide, followed by stimulation with IL-1. Lysates were prepared and included in a pull-down employing the UBA domain of p62. Should the p62-UBA domain bind K63-polyubiquitinated substrate proteins, a dose-dependent reduction in interaction of the lysates would occur with lysates prepared from cells pretreated with TRAF6 inhibitory peptide. In fact, this is what was found (FIG. 2C).

For experiment [2], the system named is TrkA. Description: NGF-dependent TrkA ubiquitination and TrkA complex formation in PC12 cells (FIG. 15B, 15C). The note with it: TrkA immunoprecipitation. Here is the method: The peptide containing the TRAF6-binding motif in p62 along with the hydrophobic sequence containing the cell-permeable motif from Kaposi fibroblast growth factor signal sequence […]-[…] (SEQ ID NO. 4) and control peptide […]-[…] (SEQ ID NO. 5) was synthesized. As a preliminary step, PC12 cells were pretreated with different concentrations (75-300 μM) of TRAF6 peptide for 5 hours followed by NGF stimulation for 15 min and immunoprecipitation of TRAF6 followed by Western blotting for p62. […] To address whether TRAF6 peptide affects the interaction of p62 and UbcH7 with TRAF6, PC12 cells were treated with or without 150 μM of control peptide or TRAF6 peptide for 5 hours and then stimulated with NGF for 15 min. By immunoprecipitating TRAF6, TRAF6 peptide (150 μM) abrogated the interaction of p62 with TRAF6, but not UbcH7, upon NGF treatment (FIG. 8A). […] The ability of the TRAF6 peptide to impair the ubiquitination process was investigated. Lysates recovered from NGF treated cells were immunoprecipitated with TrkA receptor antibody and blotted for ubiquitin or the receptor (FIG. 15B). […] The ability of the peptide to interrupt the formation of the functional TrkA-p62-TRAF6-UbcH7 complex on NGF stimulation as well was also investigated. TrkA was immunoprecipitated and blotted for the presence of each protein in the complex (FIG. 15C).

Experiment [3] has as its system internalization of NGF by PC12 cells. Put plainly: Internalization of NGF, 125I-NGF binding assay in PC12 cells (FIG. 15D). The note with it: PC12 cells pretreated with peptide (150 μM); control not shown. Here is the method: Additionally, PC12 cells were pretreated or not with TRAF6 peptide (150 μM) followed by measurement of internalized receptor employing 125I-NGF binding assay (FIG. 15D). […] Similarly, the level of internalized NGF was measured in PC12 cells transfected with wild-type ubiquitin, K48R or K63R ubiquitin mutants (FIG. 15E). Transfection of ubiquitin, or K48R mutant was without any effect on internalization of NGF. By comparison, transfection of K63R ubiquitin mutant totally abrogated internalization of the ligand. […] Thus, p62 serves as an adaptor, as well as, a scaffold for TRAF6-directed ubiquitination and K63 chains play a signaling role for internalization and sorting of the receptor.

Turning to “AAVALLPAVLLALLAP-ESASGPSEDPSVNFLK (AAVALLPAVLLALLAPESASGPSEDPSVNFLK; artificial sequence for cell permeable peptide) [TRAF6 peptide]”, the p62-TRAF6 interaction entry in experiment [1] is “blocked p62-TRAF6 interaction in a dose-dependent fashion”. In experiment [2] (NGF stimulation), the “TRAF6 and UbcH7 interacting with TrkA” value is given as “eliminated”; the “interaction of p62 and TrkA” value is given as “did not disrupt”. The “NGF-dependent ubiquitination of TrkA” value in experiment [2] (NGF treated) was “effectively abolish”. Also, the “internalization of NGF” value in experiment [3] is recorded as “significantly blocked”.
